Measurements from ChEMBL document CHEMBL5465560, “Selectivity Literature for EUbOPEN Chemogenomic Library” (2024).
One block for each compound: values may come before it.

Tests used:
[1] = target: T1, Casein kinase I isoform alpha-like (Homo sapiens) (UniProt Q8N752); settings: at 10 µM
T1 sequence (whole entry): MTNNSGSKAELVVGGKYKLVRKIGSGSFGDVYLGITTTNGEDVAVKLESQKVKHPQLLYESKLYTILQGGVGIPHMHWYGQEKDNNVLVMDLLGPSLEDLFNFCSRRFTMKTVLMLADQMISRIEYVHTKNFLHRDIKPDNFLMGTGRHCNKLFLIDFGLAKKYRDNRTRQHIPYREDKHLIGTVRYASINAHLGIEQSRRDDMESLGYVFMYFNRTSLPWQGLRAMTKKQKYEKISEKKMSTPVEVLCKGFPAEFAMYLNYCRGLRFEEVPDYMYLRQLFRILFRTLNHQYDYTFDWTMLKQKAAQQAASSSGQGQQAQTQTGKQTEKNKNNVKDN

[2] = target: Serine/threonine-protein kinase 26 (Homo sapiens, UniProt Q9P289); assay: Selectivity interaction (Kinase panel (literature)) EUB0001199aCl STK26; settings: at 1 µM
[3] = target: 4-aminobutyrate aminotransferase, mitochondrial (Homo sapiens, UniProt P80404); assay: Selectivity interaction (GPCR panel (PDSP screen)) EUB0001079a ABAT; settings: at 10 µM
[4] = target: T2, Protein kinase C iota type (Homo sapiens) (UniProt P41743); assay: Selectivity interaction (SelectScreen profiling (Invitrogen)) EUB0000607a PRKCI; settings: at 2 µM
T2 sequence (whole entry): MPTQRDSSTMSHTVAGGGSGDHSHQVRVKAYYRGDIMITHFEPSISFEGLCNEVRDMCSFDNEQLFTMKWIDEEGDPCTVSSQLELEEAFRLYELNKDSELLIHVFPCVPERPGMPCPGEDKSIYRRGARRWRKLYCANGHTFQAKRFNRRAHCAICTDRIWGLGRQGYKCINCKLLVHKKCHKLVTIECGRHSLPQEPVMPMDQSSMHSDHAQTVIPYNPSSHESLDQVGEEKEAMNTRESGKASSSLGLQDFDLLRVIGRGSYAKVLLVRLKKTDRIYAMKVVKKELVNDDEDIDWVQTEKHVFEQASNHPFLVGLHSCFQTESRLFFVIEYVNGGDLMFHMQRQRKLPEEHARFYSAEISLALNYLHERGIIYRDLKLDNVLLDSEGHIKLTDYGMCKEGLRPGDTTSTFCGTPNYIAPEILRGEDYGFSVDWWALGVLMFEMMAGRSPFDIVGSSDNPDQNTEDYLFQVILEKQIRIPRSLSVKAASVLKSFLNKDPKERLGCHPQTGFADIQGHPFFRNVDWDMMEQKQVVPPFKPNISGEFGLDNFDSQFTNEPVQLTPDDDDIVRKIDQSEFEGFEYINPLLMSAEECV

[5] = target: Tyrosine-protein kinase ABL1 (Homo sapiens, UniProt P00519); assay: Selectivity interaction (KinomeScan (DiscoverX)) EUB0000607a ABL1; settings: at 10 µM
[6] = target: T3, NUAK family SNF1-like kinase 2 (Homo sapiens) (UniProt Q9H093); assay: Selectivity interaction (KinomeScan (DiscoverX)) EUB0000045b NUAK2
T3 sequence (whole entry): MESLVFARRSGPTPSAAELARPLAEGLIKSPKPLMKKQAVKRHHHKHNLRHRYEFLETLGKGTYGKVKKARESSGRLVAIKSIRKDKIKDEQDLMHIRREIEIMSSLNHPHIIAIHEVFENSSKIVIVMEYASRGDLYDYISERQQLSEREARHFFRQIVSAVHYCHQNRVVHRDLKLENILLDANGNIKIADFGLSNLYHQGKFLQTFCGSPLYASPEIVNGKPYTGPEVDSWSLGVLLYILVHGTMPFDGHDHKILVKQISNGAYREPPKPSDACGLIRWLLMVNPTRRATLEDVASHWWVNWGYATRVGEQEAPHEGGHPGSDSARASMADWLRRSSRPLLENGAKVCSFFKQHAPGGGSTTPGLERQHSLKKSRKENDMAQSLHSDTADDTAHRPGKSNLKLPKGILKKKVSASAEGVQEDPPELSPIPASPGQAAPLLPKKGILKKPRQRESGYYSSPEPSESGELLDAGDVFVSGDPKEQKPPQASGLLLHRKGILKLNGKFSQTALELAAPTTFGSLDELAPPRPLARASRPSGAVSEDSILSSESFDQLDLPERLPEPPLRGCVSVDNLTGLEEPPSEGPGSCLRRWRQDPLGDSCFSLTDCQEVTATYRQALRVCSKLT

[7] = target: Leucine-rich repeat serine/threonine-protein kinase 2 (Homo sapiens, UniProt Q5S007); settings: at 10 µM
[8] = target: Calcium/calmodulin-dependent protein kinase kinase 2 (Homo sapiens) (UniProt Q96RR4); assay: Selectivity interaction (ActivX KiNativ screen (kinase selectivity in THP-1 cell lysates)) EUB0000639a CAMKK2; format: subcellular; settings: lysate, at 0.04 µM
[9] = target: Serine/threonine-protein kinase N1 (Homo sapiens, UniProt Q16512); assay: Selectivity interaction (Kinase panel (Invitrogen)) EUB0000639a PKN1; settings: at 200 nM
[10] = target: Interferon-induced, double-stranded RNA-activated protein kinase (Homo sapiens) (UniProt P19525); assay: Selectivity interaction (ActivX KiNativ screen (kinase selectivity in THP-1 cell lysates)) EUB0000639a EIF2AK2; format: subcellular; settings: lysate, at 1 µM
[11] = target: Serine/threonine-protein kinase PRP4 homolog (Homo sapiens) (UniProt Q13523); assay: Selectivity interaction (ActivX KiNativ screen (kinase selectivity in THP-1 cell lysates)) EUB0000639a PRPF4; format: subcellular; settings: lysate, at 1 µM
Focal adhesion kinase 1 = Focal adhesion kinase 1 (Homo sapiens, UniProt Q05397)
[12] = target: T4, Rhodopsin kinase GRK1 (Homo sapiens) (UniProt Q15835); assay: Selectivity interaction (KinomeScan (DiscoverX)) EUB0001049a GRK1; settings: at 1 µM
T4 sequence (whole entry): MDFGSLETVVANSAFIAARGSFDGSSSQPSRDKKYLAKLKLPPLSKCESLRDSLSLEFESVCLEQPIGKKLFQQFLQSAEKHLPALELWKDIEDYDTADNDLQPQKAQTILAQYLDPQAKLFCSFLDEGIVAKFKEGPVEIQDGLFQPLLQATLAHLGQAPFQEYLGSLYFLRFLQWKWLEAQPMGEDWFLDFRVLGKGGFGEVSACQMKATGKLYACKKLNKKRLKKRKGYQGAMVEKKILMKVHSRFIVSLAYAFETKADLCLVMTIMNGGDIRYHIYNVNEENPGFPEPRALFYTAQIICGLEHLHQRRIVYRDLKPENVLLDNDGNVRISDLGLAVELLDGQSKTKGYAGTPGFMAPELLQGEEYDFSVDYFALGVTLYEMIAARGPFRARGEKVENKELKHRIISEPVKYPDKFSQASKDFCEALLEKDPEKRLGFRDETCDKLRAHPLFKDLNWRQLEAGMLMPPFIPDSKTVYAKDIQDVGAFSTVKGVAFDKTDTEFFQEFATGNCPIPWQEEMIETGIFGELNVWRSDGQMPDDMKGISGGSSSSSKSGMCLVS

Sequence of Focal adhesion kinase 1 (Q05397 whole entry): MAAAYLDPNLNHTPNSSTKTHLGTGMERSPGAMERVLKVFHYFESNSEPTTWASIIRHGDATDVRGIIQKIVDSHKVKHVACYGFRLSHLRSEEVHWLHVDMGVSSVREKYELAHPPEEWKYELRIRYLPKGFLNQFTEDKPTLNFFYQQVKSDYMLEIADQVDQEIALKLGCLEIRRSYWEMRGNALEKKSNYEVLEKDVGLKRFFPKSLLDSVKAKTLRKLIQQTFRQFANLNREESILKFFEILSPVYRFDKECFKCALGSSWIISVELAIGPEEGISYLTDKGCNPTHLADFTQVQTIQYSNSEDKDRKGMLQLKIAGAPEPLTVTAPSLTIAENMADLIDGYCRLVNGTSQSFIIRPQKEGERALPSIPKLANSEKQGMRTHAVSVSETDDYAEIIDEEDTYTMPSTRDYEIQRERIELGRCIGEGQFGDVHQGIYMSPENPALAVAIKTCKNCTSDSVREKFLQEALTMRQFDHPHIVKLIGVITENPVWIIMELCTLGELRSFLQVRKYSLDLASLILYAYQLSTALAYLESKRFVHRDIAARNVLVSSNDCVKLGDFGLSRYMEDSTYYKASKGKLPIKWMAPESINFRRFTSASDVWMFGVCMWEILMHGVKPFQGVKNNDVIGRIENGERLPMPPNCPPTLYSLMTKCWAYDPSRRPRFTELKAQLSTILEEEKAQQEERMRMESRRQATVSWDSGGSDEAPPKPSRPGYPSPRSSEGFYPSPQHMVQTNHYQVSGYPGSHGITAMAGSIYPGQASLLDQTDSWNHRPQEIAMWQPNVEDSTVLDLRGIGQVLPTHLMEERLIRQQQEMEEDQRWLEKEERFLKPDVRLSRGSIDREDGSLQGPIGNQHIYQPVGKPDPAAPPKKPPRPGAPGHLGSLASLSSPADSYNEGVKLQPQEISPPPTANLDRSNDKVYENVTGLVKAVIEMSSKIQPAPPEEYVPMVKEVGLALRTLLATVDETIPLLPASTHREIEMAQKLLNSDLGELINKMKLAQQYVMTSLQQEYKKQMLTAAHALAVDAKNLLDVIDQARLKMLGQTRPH
Sequence of Leucine-rich repeat serine/threonine-protein kinase 2 (Q5S007 whole entry): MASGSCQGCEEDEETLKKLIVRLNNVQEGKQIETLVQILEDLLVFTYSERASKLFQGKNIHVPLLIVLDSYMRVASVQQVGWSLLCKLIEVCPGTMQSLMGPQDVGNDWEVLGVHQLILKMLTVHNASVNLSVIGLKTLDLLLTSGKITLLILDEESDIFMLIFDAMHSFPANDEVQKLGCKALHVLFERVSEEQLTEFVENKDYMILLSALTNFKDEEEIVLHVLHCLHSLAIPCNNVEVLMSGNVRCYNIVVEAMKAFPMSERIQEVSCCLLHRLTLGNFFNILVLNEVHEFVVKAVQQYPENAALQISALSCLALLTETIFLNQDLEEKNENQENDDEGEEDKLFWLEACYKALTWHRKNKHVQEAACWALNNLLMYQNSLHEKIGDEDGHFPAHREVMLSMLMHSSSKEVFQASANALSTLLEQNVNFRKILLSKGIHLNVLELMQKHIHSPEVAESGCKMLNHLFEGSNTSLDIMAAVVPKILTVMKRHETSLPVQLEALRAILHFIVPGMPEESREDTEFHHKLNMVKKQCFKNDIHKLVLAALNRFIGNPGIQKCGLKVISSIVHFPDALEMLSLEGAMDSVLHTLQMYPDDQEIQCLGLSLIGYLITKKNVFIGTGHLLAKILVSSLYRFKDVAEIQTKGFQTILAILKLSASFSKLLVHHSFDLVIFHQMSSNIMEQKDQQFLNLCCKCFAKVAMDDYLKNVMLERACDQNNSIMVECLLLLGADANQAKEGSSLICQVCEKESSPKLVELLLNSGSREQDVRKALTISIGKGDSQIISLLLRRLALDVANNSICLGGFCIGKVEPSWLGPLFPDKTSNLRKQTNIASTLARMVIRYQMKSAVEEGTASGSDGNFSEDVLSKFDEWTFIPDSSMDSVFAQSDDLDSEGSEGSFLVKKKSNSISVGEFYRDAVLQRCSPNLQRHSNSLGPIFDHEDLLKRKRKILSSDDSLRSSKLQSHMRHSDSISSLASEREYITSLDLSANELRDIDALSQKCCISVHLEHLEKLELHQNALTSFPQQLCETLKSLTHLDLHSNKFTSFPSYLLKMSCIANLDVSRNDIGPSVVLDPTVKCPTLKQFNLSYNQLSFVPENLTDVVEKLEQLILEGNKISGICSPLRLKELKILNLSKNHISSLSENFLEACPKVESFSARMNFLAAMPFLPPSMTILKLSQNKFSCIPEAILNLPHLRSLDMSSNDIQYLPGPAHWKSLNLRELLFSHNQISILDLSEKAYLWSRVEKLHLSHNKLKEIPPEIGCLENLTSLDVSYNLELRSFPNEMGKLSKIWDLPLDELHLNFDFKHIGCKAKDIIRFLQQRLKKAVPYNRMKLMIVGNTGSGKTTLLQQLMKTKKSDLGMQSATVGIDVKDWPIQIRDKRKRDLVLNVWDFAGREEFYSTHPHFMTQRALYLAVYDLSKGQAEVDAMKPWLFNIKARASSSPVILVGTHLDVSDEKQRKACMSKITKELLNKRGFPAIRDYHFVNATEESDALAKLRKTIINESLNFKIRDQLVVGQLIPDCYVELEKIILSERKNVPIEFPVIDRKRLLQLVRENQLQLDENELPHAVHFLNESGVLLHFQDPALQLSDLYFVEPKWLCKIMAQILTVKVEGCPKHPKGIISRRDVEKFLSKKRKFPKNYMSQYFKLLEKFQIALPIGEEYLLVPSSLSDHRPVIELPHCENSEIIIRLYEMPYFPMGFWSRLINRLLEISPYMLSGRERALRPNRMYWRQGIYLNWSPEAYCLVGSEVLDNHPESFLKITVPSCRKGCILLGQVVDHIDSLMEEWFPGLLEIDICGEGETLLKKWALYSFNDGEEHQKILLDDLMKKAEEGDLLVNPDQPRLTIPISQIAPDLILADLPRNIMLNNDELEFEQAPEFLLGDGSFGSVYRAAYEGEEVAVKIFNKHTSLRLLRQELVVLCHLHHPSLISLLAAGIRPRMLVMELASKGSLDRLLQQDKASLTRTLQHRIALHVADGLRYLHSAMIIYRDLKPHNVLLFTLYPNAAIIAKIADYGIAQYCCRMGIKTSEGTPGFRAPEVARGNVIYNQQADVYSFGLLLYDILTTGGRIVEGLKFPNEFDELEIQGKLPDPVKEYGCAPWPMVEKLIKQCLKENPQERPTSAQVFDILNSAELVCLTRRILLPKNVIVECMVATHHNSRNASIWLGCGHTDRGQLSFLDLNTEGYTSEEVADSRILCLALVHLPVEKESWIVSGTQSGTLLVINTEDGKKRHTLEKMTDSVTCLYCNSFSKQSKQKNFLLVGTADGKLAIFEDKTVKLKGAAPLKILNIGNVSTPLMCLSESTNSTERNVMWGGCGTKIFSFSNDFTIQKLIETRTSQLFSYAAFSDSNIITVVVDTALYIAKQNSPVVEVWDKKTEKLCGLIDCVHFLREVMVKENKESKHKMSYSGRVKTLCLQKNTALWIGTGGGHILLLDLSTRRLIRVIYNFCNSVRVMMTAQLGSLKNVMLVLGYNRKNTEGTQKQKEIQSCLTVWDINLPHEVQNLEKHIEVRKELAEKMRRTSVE
Sequence of Tyrosine-protein kinase ABL1 (P00519 whole entry): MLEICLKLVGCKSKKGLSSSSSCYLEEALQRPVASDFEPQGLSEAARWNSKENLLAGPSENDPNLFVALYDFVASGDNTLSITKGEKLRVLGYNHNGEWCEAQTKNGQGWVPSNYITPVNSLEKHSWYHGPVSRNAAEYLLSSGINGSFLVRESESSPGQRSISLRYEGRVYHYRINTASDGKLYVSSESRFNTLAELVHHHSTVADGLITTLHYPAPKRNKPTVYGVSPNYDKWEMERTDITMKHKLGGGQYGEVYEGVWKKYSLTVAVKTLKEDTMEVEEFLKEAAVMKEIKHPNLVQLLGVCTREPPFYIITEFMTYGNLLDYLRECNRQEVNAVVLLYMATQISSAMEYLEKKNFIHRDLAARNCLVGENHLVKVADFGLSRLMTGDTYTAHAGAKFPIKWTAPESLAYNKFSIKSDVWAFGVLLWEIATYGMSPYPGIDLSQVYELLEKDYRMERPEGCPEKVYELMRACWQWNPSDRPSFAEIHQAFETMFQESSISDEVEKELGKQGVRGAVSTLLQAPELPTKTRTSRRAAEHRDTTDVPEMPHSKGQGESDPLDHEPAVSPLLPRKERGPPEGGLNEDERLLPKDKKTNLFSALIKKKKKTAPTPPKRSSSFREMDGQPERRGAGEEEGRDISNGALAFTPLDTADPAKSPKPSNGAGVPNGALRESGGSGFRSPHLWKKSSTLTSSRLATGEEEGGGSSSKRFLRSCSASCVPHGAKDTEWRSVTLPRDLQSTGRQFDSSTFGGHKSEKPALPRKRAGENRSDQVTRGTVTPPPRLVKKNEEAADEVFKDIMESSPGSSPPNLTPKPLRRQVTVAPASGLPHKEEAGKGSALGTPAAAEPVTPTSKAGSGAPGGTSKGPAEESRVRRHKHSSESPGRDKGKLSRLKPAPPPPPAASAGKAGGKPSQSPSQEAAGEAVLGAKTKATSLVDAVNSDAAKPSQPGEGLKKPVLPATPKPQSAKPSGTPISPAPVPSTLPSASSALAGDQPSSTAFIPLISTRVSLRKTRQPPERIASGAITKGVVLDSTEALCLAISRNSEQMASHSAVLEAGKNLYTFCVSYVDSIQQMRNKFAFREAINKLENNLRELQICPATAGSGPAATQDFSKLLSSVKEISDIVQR
Sequence of Serine/threonine-protein kinase 26 (Q9P289 2-416 limits assumed): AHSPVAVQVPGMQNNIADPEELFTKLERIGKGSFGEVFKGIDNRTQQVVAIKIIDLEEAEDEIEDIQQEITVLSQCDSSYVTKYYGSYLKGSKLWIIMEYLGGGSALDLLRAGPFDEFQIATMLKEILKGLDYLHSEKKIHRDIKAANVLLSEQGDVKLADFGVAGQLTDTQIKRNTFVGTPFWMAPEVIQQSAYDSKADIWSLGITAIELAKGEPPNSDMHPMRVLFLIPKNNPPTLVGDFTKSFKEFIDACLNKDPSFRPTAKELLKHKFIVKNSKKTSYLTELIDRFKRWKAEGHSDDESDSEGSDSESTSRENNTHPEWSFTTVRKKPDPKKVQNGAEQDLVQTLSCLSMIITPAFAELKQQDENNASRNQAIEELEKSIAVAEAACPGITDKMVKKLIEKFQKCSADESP

% of control [1]: 100%
SMILES: CCN(CC)CCCCNc1ncc2cc(-c3cc(OC)cc(OC)c3)c(NC(=O)NC(C)(C)C)nc2n1

% of inhibition [2]: 8%
SMILES: CN1Cc2nccc(-c3cn(C)nc3-c3ccc(F)cc3)c2C1=O

SMILES: Nc1cnc(N2CCc3cc(S(=O)(=O)Nc4c(F)cc(Cl)cc4F)cc(N4CCCC4=O)c32)nc1 [TP-020n]
% of inhibition [3]: -2.65%

SMILES: CNC(=O)Nc1ccc(-c2nc(N3CC4CCC(C3)O4)c3cnn(C4CCC5(CC4)OCCO5)c3n2)cc1
% of inhibition [4]: 6%
% of control [5]: 100%

SMILES: C=CC(=O)Nc1cc(-n2c(=O)ccc3cnc4ccc(-c5ccc(NS(C)(=O)=O)cc5)cc4c32)ccc1C
% of control ([6]; at 1 µM): 100%
% of control ([6]; at 10 µM): 100%

SMILES: Cc1cc([C@@H](C)Nc2ccccc2C(=O)O)c2nc(N3CCOCC3)cc(=O)n2c1 [AZD-6482]
% of control [7]: 100%

% of inhibition [8]: -13%
% of inhibition [9]: 8.54%
% of inhibition [10]: -3.7%
% of inhibition [11]: 67.7%
SMILES: CC[C@@H]1[C@H](F)C(=O)N[C@@H]1COc1nccc2cc(C(N)=O)c(OC)cc12 [ZIMLOVISERTIB]

IC50 (Focal adhesion kinase 1): > 10 µM
SMILES: CCc1cccc(CC)c1NC(=O)c1nn(C)c2c1CCc1cnc(Nc3ccc(C(=O)NC4CCN(C)CC4)cc3OC(F)(F)F)nc1-2

SMILES: COc1cc(Nc2nc(C)cc(-c3cnn4nc(OC)ccc34)n2)cc(C(F)(F)F)c1
% of control [12]: 75%
